Assays:
[1] = Mutagenicity in Salmonella typhimurium TA98 by AMES test; format: toxicity; details: salmonella enterica subsp. enterica serovar typhimurium
[2] = Mutagenicity in Salmonella typhimurium TA100 in presence of liver S9 fraction by AMES test; format: toxicity, subcellular; details: salmonella enterica subsp. enterica serovar typhimurium
[3] = Mutagenicity in Salmonella typhimurium TA100 by AMES test; format: toxicity; details: salmonella enterica subsp. enterica serovar typhimurium
[4] = Mutagenicity in Salmonella typhimurium TA98 in presence of liver S9 fraction by AMES test; format: toxicity, subcellular; details: salmonella enterica subsp. enterica serovar typhimurium
Hepatitis C virus [5] = experiment: Antiviral activity against Hepatitis C virus subtype 1b harboring NS5A L31V mutant infected in Huh 7.5.1 cells assessed as reduction in viral replication incubated for 3 days by NK5.1 luciferase reporter gene assay; format: functional, organism-based, Hepacivirus hominis; details: Huh-7.5.1, 72 h
Hepatitis C virus [6] = experiment: Antiviral activity against Hepatitis C virus subtype 1b harboring NS5A L31V/Y93H double mutant infected in Huh 7.5.1 cells assessed as reduction in viral replication incubated for 3 days by NK5.1 luciferase reporter gene assay; format: functional, organism-based, Hepacivirus hominis; details: Huh-7.5.1, 72 h
Hepatitis C virus [7] = experiment: Antiviral activity against Hepatitis C virus subtype 3a infected in Huh 7.5.1 cells assessed as reduction in viral replication incubated for 3 days by S52-Feo luciferase reporter gene assay; format: functional, organism-based, Hepacivirus hominis; details: Huh-7.5.1, 72 h
Hepatitis C virus [8] = experiment: Antiviral activity against Hepatitis C virus subtype 1b harboring NS5A Y93H mutant infected in Huh 7.5.1 cells assessed as reduction in viral replication incubated for 3 days by NK5.1 luciferase reporter gene assay; format: functional, organism-based, Hepacivirus hominis; details: Huh-7.5.1, 72 h
Hepatitis C virus [9] = experiment: Antiviral activity against Hepatitis C virus subtype 1b infected in Huh 7.5.1 cells assessed as reduction in viral replication incubated for 3 days by NK5.1 luciferase reporter gene assay; format: functional, organism-based, Hepacivirus hominis; details: Huh-7.5.1, 72 h
Hepatitis C virus [10] = experiment: Antiviral activity against Hepatitis C virus subtype 2a infected in Huh 7.5.1 cells assessed as reduction in viral replication incubated for 3 days by JC1 Gaussia luciferase reporter gene assay; format: functional, organism-based, Hepacivirus hominis; details: Huh-7.5.1, 72 h

SMILES: Nc1ccc2c(c1)C(c1ccc3ccccc3c1)c1cc(N)ccc1-2
- Activity [1]: Non-Toxic
- Activity [2]: Non-Toxic
- Activity [3]: Non-Toxic
- Activity [4]: Toxic

SMILES: Nc1ccc2c(c1)C(=Cc1ccncc1)c1cc(N)ccc1-2
- Activity [1]: Non-Toxic
- Activity [2]: Toxic
- Activity [3]: Non-Toxic
- Activity [4]: Toxic

SMILES: Nc1ccc2c(c1)C(CCCCC(F)(F)F)(CCCCC(F)(F)F)c1cc(N)ccc1-2
- Activity [1]: Non-Toxic
- Activity [2]: Non-Toxic
- Activity [3]: Non-Toxic
- Activity [4]: Non-Toxic

SMILES: Nc1ccc2c3ccc(N)cc3n(C(C3CC3)C3CC3)c2c1
- Activity [1]: Non-Toxic
- Activity [2]: Toxic
- Activity [3]: Non-Toxic
- Activity [4]: Toxic

SMILES: CCCC1(CCC)c2cc(N)ccc2-c2ccc(N)cc21
- Activity [1]: Non-Toxic
- Activity [2]: Non-Toxic
- Activity [3]: Non-Toxic
- Activity [4]: Toxic

SMILES: Nc1ccc2c(c1)C(Cc1ccc(C(F)(F)F)cc1)c1cc(N)ccc1-2
- Activity [1]: Toxic
- Activity [2]: Non-Toxic
- Activity [3]: Non-Toxic
- Activity [4]: Toxic

SMILES: Nc1ccc2c(c1)C(c1ccc(Br)cc1)c1cc(N)ccc1-2
- Activity [1]: Non-Toxic
- Activity [2]: Non-Toxic
- Activity [3]: Non-Toxic
- Activity [4]: Toxic

SMILES: COCCOc1cccc(Cn2c3cc(N)ccc3c3ccc(N)cc32)c1
- Activity [1]: Non-Toxic
- Activity [2]: Non-Toxic
- Activity [3]: Non-Toxic
- Activity [4]: Toxic

SMILES: CC(c1ccccc1)n1c2cc(N)ccc2c2ccc(N)cc21 (stereo not given)
- Activity [1]: Non-Toxic
- Activity [2]: Toxic
- Activity [3]: Non-Toxic
- Activity [4]: Toxic

SMILES: CCCCCCCCCCCCn1c2cc(N)ccc2c2ccc(N)cc21
- Activity [1]: Non-Toxic
- Activity [2]: Non-Toxic
- Activity [3]: Non-Toxic
- Activity [4]: Non-Toxic

SMILES: Nc1ccc2c(c1)C(CCCC(F)(F)F)(CCCC(F)(F)F)c1cc(N)ccc1-2
- Activity [1]: Non-Toxic
- Activity [2]: Non-Toxic
- Activity [3]: Non-Toxic
- Activity [4]: Toxic

SMILES: CCCCn1c2cc(N)ccc2c2ccc(N)cc21
- Activity [1]: Toxic
- Activity [2]: Toxic
- Activity [3]: Toxic
- Activity [4]: Toxic

SMILES: CC(C)c1ccc(C2c3cc(N)ccc3-c3ccc(N)cc32)cc1
- Activity [1]: Non-Toxic
- Activity [2]: Non-Toxic
- Activity [3]: Non-Toxic
- Activity [4]: Toxic

SMILES: CCCCC(c1ccccc1)n1c2cc(N)ccc2c2ccc(N)cc21 (stereo not given)
- Activity [1]: Non-Toxic
- Activity [2]: Non-Toxic
- Activity [3]: Non-Toxic
- Activity [4]: Toxic

SMILES: Nc1ccc2c3ccc(N)cc3n(CCCCCCCCCCN3CCOCC3)c2c1
- Activity [1]: Non-Toxic
- Activity [2]: Non-Toxic
- Activity [3]: Non-Toxic
- Activity [4]: Non-Toxic

SMILES: CCCCCCCCCC(c1ccccc1)n1c2cc(N)ccc2c2ccc(N)cc21 (stereo not given)
- Activity [1]: Non-Toxic
- Activity [2]: Non-Toxic
- Activity [3]: Non-Toxic
- Activity [4]: Non-Toxic

SMILES: CC(C)=CC1c2cc(N)ccc2-c2ccc(N)cc21
- Activity [1]: Toxic
- Activity [2]: Toxic
- Activity [3]: Toxic
- Activity [4]: Toxic

SMILES: CCCCOc1ccc(Cn2c3cc(N)ccc3c3ccc(N)cc32)cc1
- Activity [1]: Non-Toxic
- Activity [2]: Non-Toxic
- Activity [3]: Non-Toxic
- Activity [4]: Toxic

SMILES: CCCCCCOc1ccc(Cn2c3cc(N)ccc3c3ccc(N)cc32)cc1
- Activity [1]: Non-Toxic
- Activity [2]: Non-Toxic
- Activity [3]: Non-Toxic
- Activity [4]: Toxic

SMILES: Nc1ccc2c(c1)C(c1ccc(C(F)(F)F)cc1)c1cc(N)ccc1-2
- Activity [1]: Non-Toxic
- Activity [2]: Non-Toxic
- Activity [3]: Non-Toxic
- Activity [4]: Toxic

SMILES: Nc1ccc2c(c1)C(=Cc1ccc(C(F)(F)F)cc1)c1cc(N)ccc1-2
- Activity [1]: Toxic
- Activity [2]: Non-Toxic
- Activity [3]: Non-Toxic
- Activity [4]: Toxic

SMILES: Nc1ccc2c3ccc(N)cc3n(Cc3cccc(OC4CCCC4)c3)c2c1
- Activity [1]: Non-Toxic
- Activity [2]: Non-Toxic
- Activity [3]: Non-Toxic
- Activity [4]: Toxic

SMILES: CC(C)(C)c1ccc(C2c3cc(N)ccc3-c3ccc(N)cc32)cc1
- Activity [1]: Non-Toxic
- Activity [2]: Non-Toxic
- Activity [3]: Non-Toxic
- Activity [4]: Toxic

SMILES: CCCCC(CCCC)n1c2cc(N)ccc2c2ccc(N)cc21
- Activity [1]: Non-Toxic
- Activity [2]: Non-Toxic
- Activity [3]: Non-Toxic
- Activity [4]: Non-Toxic

SMILES: CCCCCCCCCCn1c2cc(N)ccc2c2ccc(N)cc21
- Activity [1]: Non-Toxic
- Activity [2]: Non-Toxic
- Activity [3]: Non-Toxic
- Activity [4]: Toxic

SMILES: Nc1ccc2c(c1)C(c1ccc(F)cc1)c1cc(N)ccc1-2
- Activity [1]: Non-Toxic
- Activity [2]: Non-Toxic
- Activity [3]: Non-Toxic
- Activity [4]: Toxic

SMILES: CCCCC1(CCCC)c2cc(NC(=O)[C@@H]3C[C@@H](O)CN3C(=O)[C@H](NC(=O)OC)c3ccccc3)ccc2-c2ccc(NC(=O)[C@@H]3C[C@@H](O)CN3C(=O)[C@H](NC(=O)OC)c3ccccc3)cc21
- EC50 (Hepatitis C virus [5]): 3 pM
- EC50 (Hepatitis C virus [6]): 41.4 nM
- EC50 (Hepatitis C virus [7]): 0.016 nM
- EC50 (Hepatitis C virus [8]): 0.88 nM
- EC50 (Hepatitis C virus [9]): 2 pM
- EC50 (Hepatitis C virus [10]): 1.2 nM

— ChEMBL document CHEMBL4673315, “Structure-activity relationship (SAR) studies on the mutagenic properties of 2,7-diaminofluorene and 2,7-diaminocarbazole derivatives” (Bioorg Med Chem Lett, 2021)
